Where a name gives a salt, the structure may show the parent alone.
Target: T1, human NK-2 receptor (Homo sapiens, UniProt P21452)
T1 construct: expressed in transfected cells; host or cells: CHO (Chinese hamster ovary) cells, membranes
T1 sequence (P21452 1-398): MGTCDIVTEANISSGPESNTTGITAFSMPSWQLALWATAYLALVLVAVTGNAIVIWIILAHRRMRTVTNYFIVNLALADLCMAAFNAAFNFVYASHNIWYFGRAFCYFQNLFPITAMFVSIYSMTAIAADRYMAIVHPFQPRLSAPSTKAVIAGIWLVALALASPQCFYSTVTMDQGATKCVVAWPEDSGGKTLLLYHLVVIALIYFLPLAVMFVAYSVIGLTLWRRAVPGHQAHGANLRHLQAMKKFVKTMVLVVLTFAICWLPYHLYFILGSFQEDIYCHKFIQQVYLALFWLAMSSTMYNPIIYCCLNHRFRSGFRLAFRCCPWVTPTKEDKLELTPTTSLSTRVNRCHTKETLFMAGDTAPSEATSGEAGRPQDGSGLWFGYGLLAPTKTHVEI
Test: binding test, affinity for the human NK-2 receptor, competition with [125I]NKA on transfected CHO cell membranes
Details: CHO cell membranes transfected with NK-2 receptor of human ileum; [125I]NKA 100 pM; 30 min, 20° C.
Description: The evaluation of the antagonist activity on NK-2 receptors has been assessed by binding and functional tests according to that already described in literature in relation to NK-2 antagonists.
The test substances have been tested within a concentration range from 0.01 nM to 10 nM. At the end of the incubation time (30 min, 20° C.) the samples have been filtered and radioactivity has been determined using a gamma-counter.

Molecule	pKi	Ki [nM]
NCCCCCNC(=O)C1CCCC(NC(=O)[C@@H](Cc2ccccc2)NC(=O)C2(NC(=O)c3cc4ccccc4s3)CCCCC2)C1.O=C(O)C(F)(F)F (stereo in doubt) [Example 22, N^γ{N^α[N^α(benzo[b]thiophen-2-ylcarbonyl)-1-aminocyclohexan-1-carboxy]-D-phenylalanyl}-3-cis-aminocyclohexan-1-carboxylic-acid-N-(5-aminopentyl)-amide trifluoroacetate salt]	9.2	
O=C(NC1(C(=O)N[C@H](Cc2ccccc2)C(=O)NCC2CCN(C3CCOCC3)CC2)CCCC1)c1ccc2cc(Br)ccc2c1 [Example 80, 6-Bromo-naphthalene-2-carboxylic acid [1-(2-phenyl-1(R)-{[1-(tetrahydro-pyran-4-yl)-piperidin-4-ylmethyl]-carbamoyl}-ethylcarbamoyl)-cyclopentyl]-amide]		0.251
Cc1ccc(C=CC(=O)NC2(C(=O)NC(Cc3ccccc3)C(=O)NC3CCC(CN4CCOCC4)C3)CCc3ccccc32)cc1 (mixture of isomers) [Example 7, N^α[N^α(4(methyl)cinnamoyl)-(R,S)1-aminoindane-1-carboxy]-D-phenylalanine amide-N-[(1S,3R)-3-(morpholin-4-ylmethyl)cyclopentyl]]		0.126
O=C(NC1(C(=O)N[C@H](Cc2ccccc2)C(=O)NCC2CCN(CC3CCCCC3)CC2)CCCC1)c1cc2ccccc2s1 [Example 79, Benzo[b]thiophene-2-carboxylic acid (1-{1(R)-[(1-cyclohexylmethyl-piperidin-4 ylmethyl)-carbamoyl]-2-phenyl-ethylcarbamoyl}-cyclopentyl)-amide]		0.0631
CN1CCN(C[C@@H]2CC[C@H](NC(=O)[C@@H](Cc3ccccc3)NC(=O)C3(NC(=O)c4cc5ccccc5s4)CCCC3)C2)CC1 [Example 32]		1.26
N[C@@H]1CCCC[C@@H]1NC(=O)C1CCCC(NC(=O)[C@@H](Cc2ccccc2)NC(=O)C2(NC(=O)c3cc4ccccc4s3)CCCC2)C1 (stereo partly drawn) [Example 30, acid-3-cis-N^γ{N^α[N^α(benzo[b]thiophen-2-ylcarbonyl)-1-aminocyclopentane-1-carboxy]-D-phenylalanil}aminocyclohexane-1-carboxylic-N-[(1S,2R)-aminocyclohexyl]amide]		0.1
Cn1c(C(=O)NC2(C(=O)N[C@H](Cc3ccccc3)C(=O)N[C@H]3CC[C@@H](C(=O)N[C@H]4CCCC[C@@H]4N)C3)CCCC2)cc2ccccc21.O=C(O)C(F)(F)F [Example 4, N^γ{N^α[N^α(N-(methyl)indol-2-ylcarboxy)-1-aminocyclopentan-1-carboxy]-D-phenylalanyl}-(1R,3S)-3-aminocyclopentane-1-carboxylic-acid-N-((1S,2S)-2-aminocyclohexyl) amide trifluoroacetate salt]	9.8	
Cc1ccc2c(c1)cc(C(=O)NC1(C(=O)N[C@H](Cc3ccccc3)C(=O)NCCCN3CCOCC3)CCCC1)n2C [Example 114, 1,5-Dimethyl-1H-indole-2-carboxylic acid {1-[1R-(3-morpholinyl-propylcarbamoyl)-2-phenyl-ethylcarbamoyl]-cyclopentyl}-amide]		1.58
NC1CCCCC1NC(=O)C1CCC(NC(=O)C(Cc2ccccc2)NC(=O)C2(NC(=O)c3cc4ccccc4s3)CCCCC2)C1 (single isomer, unassigned) [Example 40]		1.26
N^γ{N^α[N^α(benzo[b]thiophen-2-ylcarbonyl)-1-aminocyclopentan-1-carboxy]-D-phenylalanyl}-(1R,3S)-3-aminocyclopentane-1-carboxylic-acid-N-((1S,2S)2-dimethylaminocyclohexyl) amide hydrochloride salt [Example 8]	9.6	
COC1CCN(CCCNC(=O)[C@@H](Cc2ccccc2)NC(=O)C2(NC(=O)c3cc4ccccc4s3)CCCC2)CC1 [Example 53, Benzo[b]thiophene-2-carboxylic acid (1-{1(R)-[3-(4-methoxy-piperidin-1-yl)-propylcarbamoyl]-2-phenyl-ethylcarbamoyl}-cyclopentyl)-amide TFA salt]		2.51
CC1CN(CCCNC(=O)[C@@H](Cc2ccccc2)NC(=O)C2(NC(=O)c3cc4ccccc4s3)CCCCC2)CC(C)O1 (stereo partly drawn) [Example 48, Benzo[b]thiophene-2-carboxylic acid (1-{1-[3-(2,6-dimethyl-morpholin-4-yl)-propylcarbamoyl]-2-(R)-phenyl-ethylcarbamoyl}-cyclohexyl)-amide]		0.398
CN1CCCN(CCCNC(=O)[C@@H](Cc2ccccc2)NC(=O)C2(NC(=O)c3cc4ccccc4s3)CCCC2)CC1 [Example 52, Benzo[b]thiophen-2-carboxylic acid, (1-{1(R)-[3-(4-methyl-[1,4]diazepan-1-yl)-propylcarbamoyl]-2-phenylethylcarbamoyl}-cyclopentyl)-amide TFA salt]		2
O=C(NC1(C(=O)N[C@H](Cc2ccccc2)C(=O)NCC2CCN(CC3CCOCC3)CC2)CCCC1)c1cc2cc(Cl)ccc2o1 [Example 122, 5-Chloro-benzofuran-2-carboxylic acid [1-(2-phenyl-1R-{[1-(tetrahydro-pyran-4 ylmethyl)-piperidin-4-ylmethyl]-carbamoyl}-ethylcarbamoyl)cyclopentyl]-amide]		0.1
O=C(NC1(C(=O)N[C@H](Cc2ccccc2)C(=O)NCCCN2CCOCC2)CCCC1)c1cc2cc(Cl)ccc2o1 [Example 102, 5-Chloro-benzofuran-2-carboxylic acid {1-[1R-(3-morpholin-4-yl-propylcarbamoyl)-2-phenyl-ethylcarbamoyl]-cyclopentyl}-amide]		0.501
NC1CCCCC1NC(=O)C1CCCC(NC(=O)[C@H](Cc2ccccc2)NC(=O)C2(NC(=O)c3cc4ccccc4s3)CCCC2)C1 (stereo partly drawn) [Example 26, acid-3-cis-N^γ{N^α[N^α(benzo[b]thiophen-2-ylcarbonyl)-1-aminocyclopentane-1-carboxy]-L-phenylalanil}aminocyclohexane-1-carboxylic-N-(2-cis-aminocyclohexyl) amide]		0.0501
O=C(NC1(C(=O)N[C@H](Cc2ccccc2)C(=O)NCCCN2CCC3(CC2)OCCO3)CCCC1)c1cc2ccccc2s1 [Example 55, Benzo[b]thiophene-2-carboxylic acid (1-{1(R)-[3-(1,4-dioxa-8-aza-spiro[4.5]dec-8-yl)-propylcarbamoyl]-2-phenyl-ethylcarbamoyl}-cyclopentyl)-amide TFA salt]		1
O=C(NC1(C(=O)N[C@H](Cc2ccccc2)C(=O)NCC2CCN(CC3CCOCC3)CC2)CCCC1)c1cc2cccc(C(F)(F)F)c2s1 [Example 136, 7-Trifluoromethyl-benzo[b]thiophene-2-carboxylic acid [1-(2-phenyl-1R-{[1-(tetrahydro-pyran-4-ylmethyl)piperidin-4-ylmethyl]-carbamoyl}-ethylcarbamoyl)-cyclopentyl]-amide]		0.0631
COc1ccc2cc(C(=O)NC3(C(=O)N[C@H](Cc4ccccc4)C(=O)NCC4CCN(CC5CCOCC5)CC4)CCCC3)ccc2c1 [Example 118, 6-Methoxy-naphthalene-2-carboxylic acid [1-(2-phenyl-1R-{[1-(tetrahydro-pyran-4-ylmethyl)-piperidin-4-ylmethyl]-carbamoyl}-ethylcarbamoyl)-cyclopentyl]-amide]		0.316
NC1(C(=O)NCCNC(=O)[C@@H](Cc2ccccc2)NC(=O)C2(NC(=O)c3cc4ccccc4s3)CCCC2)CCCCC1 [Example 95]		1.58
O=C(NC1(C(=O)N[C@H](Cc2ccccc2)C(=O)NCCCN2CCOCC2)CCCC1)c1cc2ccc(Br)cc2s1 [Example 108, 6-Bromo-benzo[b]thiophene-2-carboxylic acid {1-[1R-(3-morpholin-4-yl-propylcarbamoyl)-2-phenyl-ethylcarbamoyl]-cyclopentyl}-amide]		0.0794
Cc1ccc2cc(C(=O)NC3(C(=O)N[C@H](Cc4ccccc4)C(=O)NCC4CCN(CC5CCOCC5)CC4)CCCC3)oc2c1 [Example 125, 6-Methyl-benzofuran-2-carboxylic acid [1-(2-phenyl-1R-{[1-(tetrahydro-pyran-4-ylmethyl)-piperidin-4-ylmethyl]-carbamoyl}-ethylcarbamoyl)-cyclopentyl]-amide]		0.251
Cc1ccc(C[C@@H](NC(=O)C2(NC(=O)c3cc4ccccc4n3C)CCCC2)C(=O)N[C@H]2CC[C@@H](C(=O)N[C@H]3CCCC[C@@H]3N)C2)cc1 [Example 17, N^γ{N^α[N^α(N-(methyl)indol-2-ylcarboxy)-1-aminocyclopentan-1-carboxy]-R-3-(4-methyl)phenyl)alanyl}-(1R,3S)-3-aminocyclopentane-1-carboxylic-acid-N-((1S,2S)-2-aminocyclohexyl)amide hydrochloride salt]		2.51
N[C@H]1CCCC[C@@H]1NC(=O)[C@@H]1CC[C@H](NC(=O)[C@@H](Cc2ccccc2)NC(=O)C2(NC(=O)c3ccc(-c4ccccc4)cc3)CCCC2)C1.O=C(O)C(F)(F)F [Example 3, N^γ{N^α[N^α(biphen-4-ylcarboxy)-1-aminocyclopentan-1-carboxy]-D-phenylalanyl}-(1R,3S)-3-aminocyclopentane-1-carboxylic-acid-N-((1S,2S)-2-aminocyclohexyl)amide trifluoroacetate salt]	9.6	

— patent US7273856B2, “Linear basic compounds having NK-2 antagonist activity and formulations thereof” (Menarini Ricerche S.P.A., priority 2001, dated 2007)
